Reference: patent publication US9421209B2, “Kinase modulators” (Rhizen Pharmaceuticals SA, priority 2009, dated 2016)

Legend:
P110 δ/Pi3K δ = P110 δ/Pi3K δ (Homo sapiens, UniProt O00329); test: Fluorescent (HTRF) determination of PI3K enzyme activity, δ isoform; assay type: biochemical; set-up: inhibition: dose or concentration left out as unconfirmed; conditions: for IC50: read-out: P110 δ/ Pi3K δ IC 50 nM
Text: Assay 1: Fluorescent determination of PI3Kinase Kinase enzyme activity
Phosphoinositide 3 kinases (PI3K) belong to a class of lipid kinases that play a critical role in the regulation of several key cellular processes. The PI3K are capable of phosphorylating the 3-hydroxy position of phosphoinositols thereby generating second messengers involved in downstream signalling events. The homogenous time resolved fluorescence (HTRF) assay allows detection of 3,4,5-triphosphate (PIP3) formed as a result of phosphorylation of phosphotidylinositol 4,5-biphosphate (PIP2) by PI3K isoforms such as α, β, γ or δ.
PI3K isoform activity for α, β, γ or δ was determined using a PI3K human HTRF™ Assay Kit (Millipore, Billerica, Mass.) with modifications. All incubations were carried out at room temperature. […] After the initial incubation, 5 μl/well of 400 μM ATP was added and incubated for an additional 30 minutes. Reaction was terminated by adding 5 μl/well stop solution (Millipore, Billerica, Mass.). Five microliters of detection mix (Millipore, Billerica, Mass.) were then added to each well and was incubated for 6-18 h in the dark. […] Data were analyzed using Graphpad Prism (Graphpad software; San Diego Calif.) for IC50 determination. Percent inhibition was calculated based on the values for the blank and enzyme controls.

Chain of P110 δ/Pi3K δ (O00329 whole entry, canonical isoform): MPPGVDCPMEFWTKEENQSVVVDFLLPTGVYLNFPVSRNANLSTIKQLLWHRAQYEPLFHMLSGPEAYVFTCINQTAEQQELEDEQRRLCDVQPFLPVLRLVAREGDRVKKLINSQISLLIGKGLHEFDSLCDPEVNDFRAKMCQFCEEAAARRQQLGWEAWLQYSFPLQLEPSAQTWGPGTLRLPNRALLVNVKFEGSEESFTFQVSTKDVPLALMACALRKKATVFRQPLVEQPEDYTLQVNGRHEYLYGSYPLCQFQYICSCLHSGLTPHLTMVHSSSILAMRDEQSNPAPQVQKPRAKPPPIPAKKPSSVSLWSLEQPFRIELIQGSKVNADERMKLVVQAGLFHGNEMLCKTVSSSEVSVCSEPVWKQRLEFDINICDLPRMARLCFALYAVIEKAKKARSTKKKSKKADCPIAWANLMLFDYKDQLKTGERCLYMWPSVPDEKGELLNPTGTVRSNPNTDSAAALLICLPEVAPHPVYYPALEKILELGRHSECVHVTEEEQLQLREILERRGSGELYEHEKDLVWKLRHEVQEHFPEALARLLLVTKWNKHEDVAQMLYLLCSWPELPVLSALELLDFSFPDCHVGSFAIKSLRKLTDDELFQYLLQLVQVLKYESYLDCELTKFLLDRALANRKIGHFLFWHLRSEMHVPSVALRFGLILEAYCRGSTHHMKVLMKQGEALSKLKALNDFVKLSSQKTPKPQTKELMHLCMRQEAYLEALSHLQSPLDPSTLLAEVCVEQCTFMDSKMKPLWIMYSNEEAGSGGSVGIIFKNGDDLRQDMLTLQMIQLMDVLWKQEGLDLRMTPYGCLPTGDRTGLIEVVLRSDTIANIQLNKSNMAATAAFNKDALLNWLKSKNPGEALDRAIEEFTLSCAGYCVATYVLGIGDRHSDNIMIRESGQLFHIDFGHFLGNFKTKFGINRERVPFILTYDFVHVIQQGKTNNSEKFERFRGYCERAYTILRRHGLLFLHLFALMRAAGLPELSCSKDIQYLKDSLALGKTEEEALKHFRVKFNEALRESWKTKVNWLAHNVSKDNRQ
Chain of P110 δ/Pi3K δ (P27986 whole entry partner, canonical isoform): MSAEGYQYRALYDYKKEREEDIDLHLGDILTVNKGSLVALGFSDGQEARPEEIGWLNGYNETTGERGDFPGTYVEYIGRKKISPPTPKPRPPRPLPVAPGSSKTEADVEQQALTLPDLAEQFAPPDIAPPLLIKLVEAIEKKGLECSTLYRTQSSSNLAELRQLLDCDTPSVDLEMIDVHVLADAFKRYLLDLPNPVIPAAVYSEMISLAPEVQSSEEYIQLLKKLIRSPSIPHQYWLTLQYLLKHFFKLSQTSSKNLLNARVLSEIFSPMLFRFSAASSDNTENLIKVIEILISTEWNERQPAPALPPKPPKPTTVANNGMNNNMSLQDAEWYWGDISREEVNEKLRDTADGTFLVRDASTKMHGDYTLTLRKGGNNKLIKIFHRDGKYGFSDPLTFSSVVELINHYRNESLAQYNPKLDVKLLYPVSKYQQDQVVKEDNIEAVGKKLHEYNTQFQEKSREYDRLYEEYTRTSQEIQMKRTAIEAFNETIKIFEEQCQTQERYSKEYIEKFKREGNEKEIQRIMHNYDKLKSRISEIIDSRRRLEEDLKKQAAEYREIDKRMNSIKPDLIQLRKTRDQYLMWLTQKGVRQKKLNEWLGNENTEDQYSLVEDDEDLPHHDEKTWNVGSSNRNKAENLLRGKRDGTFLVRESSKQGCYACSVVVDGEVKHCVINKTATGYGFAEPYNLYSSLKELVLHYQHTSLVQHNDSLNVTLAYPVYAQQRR

Row | inhibition at 1 µM (P110 δ/Pi3K δ) [%] | melting point [°C] | inhibition (P110 δ/Pi3K δ) [%] | IC50 (P110 δ/Pi3K δ) [nM] | SMILES
1 | < 50 | 274 to 276 |  |  | C[C@@H](Nc1ncnc2[nH]cnc12)c1oc2ccccc2c(=O)c1-c1cccc(F)c1 [Example 56, (R)-2-(1-(9H-purin-6-ylamino)ethyl)-3-(3-fluorophenyl)-4H-chromen-4-one]
2 | < 50 | 267 to 269 |  |  | CC(c1oc2ccccc2c(=O)c1-c1cc(F)cc(F)c1)n1cnc2c(N)ncnc21 (stereo not shown) [Example 49, 2-(1-(6-Amino-9H-purin-9-yl)ethyl)-3-(3,5-difluorophenyl)-4H-chromen-4-one]
3 | < 50 | 248 to 252 |  |  | Nc1ncnc2c1c(-c1cccc3[nH]ncc13)nn2Cc1oc2ccccc2c(=O)c1-c1ccccc1 [Example 62, 2-((4-amino-3-(1H-indazol-4-yl)-1H-pyrazolo[3,4-d]pyrimidin-1-yl)methyl)-3-phenyl-4H-chromen-4-one]
4 |  | 277 to 279 | 50 to 100 | < 250 | Cc1n[nH]c2cc(-c3nn(Cc4oc5ccc(F)cc5c(=O)c4-c4ccccc4)c4ncnc(N)c34)ccc12 [Example 103, 2-((4-amino-3-(3-methyl-1H-indazol-6-yl)-1H-pyrazolo[3,4-d]pyrimidin-1-yl)methyl)-6-fluoro-3-phenyl-4H-chromen-4-one]
5 |  |  | < 50 |  | COc1cc(F)ccc1-c1nn(C(C)c2oc3ccccc3c(=O)c2-c2cccc(F)c2)c2ncnc(N)c12 (stereo not shown) [Example 90, 2-(1-(4-amino-3-(4-fluoro-2-methoxyphenyl)-1H-pyrazolo[3,4-d]pyrimidin-1-yl)ethyl)-3-(3-fluorophenyl)-4H-chromen-4-one]
6 |  | 192 to 197 |  |  | O=c1c(-c2ccccc2)c(Cn2cnc3ccccc32)oc2ccc(Br)cc12 [Example 5, 2-[(1H-Benzo[d]imidazol-1-yl)methyl]-6-bromo-3-phenyl-4H-chromen-4-one]
7 |  | 252 to 255 |  |  | Cc1ccccc1-c1c(Cn2cnc3c(N)ncnc32)oc2ccc(Br)cc2c1=O [Example 19, 2-[(6-Amino-9H-purin-9-yl)methyl]-6-bromo-3-o-tolyl-4H-chromen-4-one]
8 |  |  | 50 to 100 | < 250 | CC(C)Oc1ccc(-c2nn(C(C)c3oc4ccccc4c(=O)c3-c3cccc(F)c3)c3ncnc(N)c23)cc1F (stereo not shown) [Example 158, 2-(1-(4-amino-3-(3-fluoro-4-isopropoxyphenyl)-1H-pyrazolo[3,4-d]pyrimidin-1-yl)ethyl)-3-(3-fluorophenyl)-4H-chromen-4-one]
9 |  | 204 to 208 |  |  | Cc1cccc2c1ncn2Cc1oc2ccccc2c(=O)c1-c1ccccc1 [Example 8, 2-[(4-methyl-1H-benzo[d]imidazol-1-yl)methyl]-3-phenyl-4H-chromen-4-one]
10 |  | 229 to 230 |  |  | Cl.O=c1c(-c2ccccc2)c(CN2CCOCC2)oc2ccc(Br)cc12

Further lines, the compound ahead of its results:

Row | SMILES | inhibition at 1 µM (P110 δ/Pi3K δ) [%] | melting point [°C] | inhibition (P110 δ/Pi3K δ) [%] | IC50 (P110 δ/Pi3K δ) [nM]
11 | CC(c1oc2ccccc2c(=O)c1-c1ccccc1F)n1cnc2c(N)ncnc21 (stereo not shown) [Example 34, 2-(1-(6-Amino-9H-purin-9-yl)ethyl)-3-(2-fluorophenyl)-4H-chromen-4-one] | 50 to 100 | 247 to 250 |  | 
12 | CC(c1oc2ccccc2c(=O)c1-c1cccc(F)c1)n1nc(-c2cccc(OC(F)F)c2)c2c(N)ncnc21 (stereo not shown) [Example 178, 2-(1-(4-amino-3-(3-(difluoromethoxy)phenyl)-1H-pyrazolo[3,4-d]pyrimidin-1-yl)ethyl)-3-(3-fluorophenyl)-4H-chromen-4-one] |  | 176 to 179 | 50 to 100 | 
13 | COc1ccc(NC(C)c2oc3ccc(F)cc3c(=O)c2-c2cccc(F)c2)cc1 (stereo not shown) [Example 165, 6-Fluoro-3-(3-fluorophenyl)-2-(1-(4-methoxyphenylamino)ethyl)-4H-chromen-4-one] |  | 152 to 156 | < 50 | 
14 | CC(c1oc2ccc(Br)cc2c(=O)c1-c1ccccc1)n1ncc2c(N)ncnc21 (stereo not shown) [Example 26, 2-(1-(4-amino-1H-pyrazolo[3,4-d]pyrimidin-1-yl)ethyl)-6-bromo-3-phenyl-4H-chromen-4-one] | < 50 | 239 to 240 |  | 
15 | CC(c1oc2ccc(Br)cc2c(=O)c1-c1ccccc1F)n1cnc2c(N)ncnc21 (stereo not shown) [Example 28, 2-(1-(6-Amino-9H-purin-9-yl)ethyl)-6-bromo-3-(2-fluorophenyl)-4H-chromen-4-one] | < 50 | 256 to 258 |  | 
16 | O=c1c(-c2ccccc2)c(Cn2cnc3c(Cl)ncnc32)oc2ccccc12 [Example 9, 2-[(6-Chloro-9H-purin-9-yl)methyl]-3-phenyl-4H-chromen-4-one] | < 50 | 187 to 190 |  | 
17 | CC(c1oc2ccccc2c(=O)c1-c1cccc(F)c1)n1nc(-c2ccc(F)c(O)c2)c2c(N)ncnc21 (stereo not shown) [Example 82a, 2-(1-(4-amino-3-(4-fluoro-3-hydroxyphenyl)-1H-pyrazolo[3,4-d]pyrimidin-1-yl)ethyl)-3-(3-fluorophenyl)-4H-chromen-4-one] |  | 241 to 244 |  | 
18 | Cl.O=c1c(-c2ccc(F)cc2)c(CN2CCOCC2)oc2ccc(Br)cc12 |  | 232 to 236 |  | 
19 | CCOc1ccc2cc(-c3nn(C(C)c4oc5ccccc5c(=O)c4-c4cccc(F)c4)c4ncnc(N)c34)ccc2c1 (stereo not shown) [Example 175, 2-(1-(4-amino-3-(6-ethoxynaphthalen-2-yl)-1H-pyrazolo[3,4-d]pyrimidin-1-yl)ethyl)-3-(3-fluorophenyl)-4H-chromen-4-one] |  | 286 to 290 |  | 
20 | CC(c1oc2ccccc2c(=O)c1-c1cccc(F)c1)n1nc(-c2cc(F)c(O)c(F)c2)c2c(N)ncnc21 (stereo not shown) [Example 126a, 2-(1-(4-amino-3-(3,5-difluoro-4-hydroxyphenyl)-1H-pyrazolo[3,4-d]pyrimidin-1-yl)ethyl)-3-(3-fluorophenyl)-4H-chromen-4-one] |  |  | < 50 | 
21 | CC(c1oc2ccccc2c(=O)c1-c1cccc(F)c1)n1nc(-c2ccc(F)cc2O)c2c(N)ncnc21 (stereo not shown) [Example 90a, 2-(1-(4-amino-3-(4-fluoro-2-hydroxyphenyl)-1H-pyrazolo[3,4-d]pyrimidin-1-yl)ethyl)-3-(3-fluorophenyl)-4H-chromen-4-one] |  | 235 to 237 |  | 
22 | COc1cc(-c2nn(C(C)c3oc4ccccc4c(=O)c3-c3cccc(F)c3)c3ncnc(N)c23)ccc1F (stereo not shown) [Example 82, 2-(1-(4-amino-3-(4-fluoro-3-methoxyphenyl)-1H-pyrazolo[3,4-d]pyrimidin-1-yl)ethyl)-3-(3-fluorophenyl)-4H-chromen-4-one] |  |  | 50 to 100 | 
23 | Cc1n[nH]c2cc(-c3nn(Cc4oc5ccccc5c(=O)c4-c4ccccc4)c4ncnc(N)c34)ccc12 [Example 92, 2-((4-amino-3-(3-methyl-1H-indazol-6-yl)-1H-pyrazolo[3,4-d]pyrimidin-1-yl)methyl)-3-phenyl-4H-chromen-4-one] |  |  | 50 to 100 | 
24 | CC(c1oc2ccccc2c(=O)c1-c1cccc(F)c1)n1nc(-c2cnn(C)c2)c2c(N)ncnc21 (stereo not shown) [Example 164, 2-(1-(4-amino-3-(1-methyl-1H-pyrazol-4-yl)-1H-pyrazolo[3,4-d]pyrimidin-1-yl)ethyl)-3-(3-fluorophenyl)-4H-chromen-4-one] |  |  | < 50 | 
25 | CC(c1oc2ccccc2c(=O)c1-c1cccc(F)c1)n1nc(-c2cncnc2)c2c(N)ncnc21 (stereo not shown) [Example 160, 2-(1-(4-amino-3-(pyrimidin-5-yl)-1H-pyrazolo[3,4-d]pyrimidin-1-yl)ethyl)-3-(3-fluorophenyl)-4H-chromen-4-one] |  | 207 to 211 |  | 
